Tests used:
[1] = test system: Mycobacterium tuberculosis; assay: Induction of membrane damage in Mycobacterium bovis BCG incubated for 60 mins under dark condition using DiOC2 probe by fluorescence assay; assay type: organism-based; details: variant bovis BCG, 1 h
[2] = test system: Mycobacterium tuberculosis; assay: Antimycobacterial activity against Mycobacterium bovis BCG assessed as depletion of intracellular ATP level at 5 times antimycobacterial MIC after 20 hrs by luciferin/luciferase coupled reporter gene assay relative to control; assay type: functional, variant bovis BCG

Row | Compound | IC50 [1] [µM] | Activity [2] [%]
1 | CN(C)CCOc1ncc(Nc2cc(-c3ccccc3)nc3cc(-c4ccc(F)cc4)nn23)cc1F | > 100 | 25
2 | COc1cc2nc(NCCC3CCOCC3)nc(Nc3cc(C(C)(C)C)n(C)n3)c2cc1OC | > 100 | 
3 | CN(C)CCOc1ncc(Nc2cc(C(F)(F)F)nc3cc(-c4ccc(F)cc4)nn23)cc1F | > 100 | 
4 | CN(C)CCOc1ncc(Nc2cc(-c3ccccc3)nc3cc(-c4ccc(F)cc4)[nH]c23)cc1F | > 100 | 23
5 | CCOc1ncc(Nc2nc(NCCC3CCOCC3)nc3cc(OC)c(OC)cc23)cc1F |  | 31
6 | COc1cc2nc(N3CCC(c4ccccc4Cl)C3)cc(Nc3cnc(OCCN(C)C)c(F)c3)c2cc1OC (stereo not drawn) | > 100 | 68
7 | CN(C)CCOc1ncc(Nc2cc(N3CCC(c4ccccc4Cl)C3)nc3cc(F)c(F)cc23)cc1F (stereo not drawn) | > 100 | 25
8 | COc1cc2nc(N3CCC(c4ccccc4Cl)C3)cc(Nc3cnc(NCCN(C)C)c(F)c3)c2cc1OC (stereo not drawn) |  | 22
9 | CCOc1ncc(Nc2cc(NCCC3CCOCC3)nc3cc(OC)c(OC)cc23)cc1F | > 100 | 5
10 | COc1nc2ccc(Br)cc2cc1[C@@H](c1ccccc1)[C@@](O)(CCN(C)C)c1cccc2ccccc12 [BEDAQUILINE] | > 100 | 76
11 | N#CC(C#N)=NNc1cccc(Cl)c1 [CARBONYL CYANIDE M-CHLOROPHENYLHYDRAZONE] | 3 | 
12 | NNC(=O)c1ccncc1 [ISONIAZID] |  | -6
